Where no end group is shown, it is not given here.
Assays:
[1] = Single-channel electrical recordings in planar lipid bilayers; type: biochemical; conditions: Supplementary Table 1
Description: High-resolution electrical recordings for the single-channel characterization were conducted in planar lipid bilayers made up of 1,2-diphytanoyl-sn-glycero-3-phosphocholine (DPhPC, Avanti Polar Lipids)[23],[27],[51]. The lipid bilayer is formed across a polytetrafluoroethylene (Teflon) aperture of ~100 µm in diameter. Teflon is placed between the two sides of the Delrin bilayer chamber, partitioning it into cis and trans compartments (600 µL each). For constructing a solvent-free lipid bilayer, the aperture is made lipophilic by pre-painting both sides with hexadecane in n-pentane (1 μL, 5 mg mL^−1)[51]. After ~10 min, the chambers were filled with buffered electrolytes (1 M KCl, 10 mM HEPES, pH 7.4), and DPhPC in n-pentane (1 μL, 5 mg mL^−1) was added. After ~15 min incubation, the lipid bilayer is formed by raising and lowering the electrolyte solution, bringing the two lipid monolayers together at the aperture. The cis compartment was connected to the ground electrode, while the trans compartment was connected to the working live electrode. Subsequently, DpPorA or DpPorA DE peptides solubilized in 0.1% DDM (1 µL, 100 µg mL^−1) were consistently introduced into the cis compartment of the bilayer. The peptide pore insertion was facilitated by mixing the bilayer chamber and applying a high voltage of +200 mV. The single-channel electrical properties of the peptide pores and analyte-induced pore blockages were examined in 1 M KCl, 10 mM HEPES, pH 7.4. Ion selectivity was assessed under asymmetric salt conditions with a KCl concentration gradient across the planar lipid bilayer (0.15 M cis/1 M trans) (SI text)[27]. The ion current was acquired and amplified using an Axopatch 200B amplifier, digitized with Digidata 1550B digitizer, and recorded using the pClamp 11 acquisition software (Molecular Devices, CA). The current signals were filtered with a 2 kHz low-pass filter frequency and 10 kHz sampling frequency, or with 10 kHz low-pass filter frequency and 50 kHz sampling frequency, in line with the requirement.

MDA-MB-231 cells = type: cell-based, human; conditions: 10 µM and 20 µM, 24 h, MTT, n = 3
Description: The MDA-MB-231 cell line was obtained from ATCC (Kind gift from Dr. Annapoorni Rangarajan, Indian Institute of Science, Bengaluru, Karnataka, India) and tested negative for mycoplasma contamination. Cells were cultured in DMEM (Gibco, 11965-092) supplemented with 10% FBS (Thermo Fisher Scientific, 10270-106) and Penicillin (100 Units/mL) /Streptomycin (100 µg/mL) (Thermo Fisher Scientific, 15070-063). […] Cell proliferation was measured 24 h after the addition of Peptide/ DDM using MTT assay (3-(4,5-dimethylthiazol-2-yl)-2,5-diphenyltetrazolium bromide, M6494, Thermo Fischer Scientific). […] The purple-colored formazan crystals were dissolved by adding 100 µL DMSO (D5879, Sigma Aldrich), and the absorbance at 570 nm was measured using a plate reader (EMax plus microplate reader). […]
Immunofluorescence (IF) images were analyzed to assess the impact of different treatments on cell membrane integrity. […] We evaluated a t least 100 cells for each group - Control, DDM-treated cells and peptide-treated cells- with independent analysis done by a student blinded to the groups' identity . […]
indicating a loss of cell membrane integrity. This categorization provided a clear and systematic approach to quantify the effects of various treatments on cell membrane integrity. […]

## MIDQITEIFGQLGTFLGGFGNIFKGLKAVIATIVKWTAAK [LpPorA DE]
[1]
  experimental conductance Gexp: 3.8 ± 0.2 nS

## MIDQITEIFGQLGTFLGGFGNIFKGLKDVIETIVKWTAAK [LpPorA]
MDA-MB-231 cells
  change in cell viability: no significant change in viability
[1]
  experimental conductance Gexp: 3.0 ± 0.2 nS
